In one data set the test system is human red blood cells. The data set is described as follows: Hemolytic assay. Type of data set: cell-based. The note with it: mean (n = 2). The protocol:
Hemolysis assays were conducted using reported protocols (see Supplementary File). […]
Human whole blood was washed three times with three volumes of 0.9% NaCl and then resuspended in the same solution to a concentration of 0.5 x 10^8 cells/mL, as determined by the manual cell count in a Neubauer hemocytometer. The washed cells were then added to the 384-well compound-containing plates for a final volume of 50 µL. After a 10 min shake on a plate shaker, the plates were then incubated for 1 h at 37 °C. After incubation, the plates were centrifuged at 1,000g for 10 min to pellet cells and debris; 25 µL of the supernatant was then transferred to a polystyrene 384-well assay plate. Hemolysis was determined by measuring the supernatant absorbance at […] (OD405). The absorbance was measured using a Tecan M1000 Pro monochromator plate reader. HC10 and HC50 (concentration at 10% and 50% hemolysis, respectively) were calculated by curve fitting the inhibition values vs. log (concentration) using a sigmoidal dose–response function with variable fitting values for the top, bottom, and slope. […]

The test system of another data set is C. albicans ATCC 90028. The data set is described as follows: MIC, CO-ADD antifungal assay, C. albicans. It is filed as cell-based, Candida albicans. The conditions noted are these: for MIC: Candida albicans, ATCC90028, mean (n = 2). The protocol: The susceptibility of bacterial strains S. aureus (ATCC 25923), E. coli (ATCC 25922), and P. aeruginosa (ATCC 27853 or PAO1) to antibiotics and compounds was determined using reported protocols. Additional antimicrobial evaluation against MRSA (ATCC 43300), Klebsiella pneumoniae (ATCC 700603), A. baumannii (ATCC 19606), Candida albicans (ATCC 90028), and Cryptococcus neoformans (ATCC 208821) was undertaken at the Community for Open Antimicrobial Drug Discovery at The University of Queensland (Australia) according to their standard protocols as reported previously. […]
2.3. Antimicrobial Assays
The susceptibility of bacterial strains S. aureus (ATCC 25923), E. coli (ATCC 25922), and P. […]
baumannii (ATCC 19606), Candida albicans (ATCC 90028), and Cryptococcus neoformans (ATCC 208821) was undertaken at the Community for Open Antimicrobial Drug Discovery at The University of Queensland (Australia) according to their standard protocols as reported previously. […]
For the antifungal assay, fungi strains were cultured for 3 days on YPD agar at 30 °C. A yeast suspension of 1 × 106 to 5 × 10^6 CFU/mL was prepared from five colonies. These stock suspensions were diluted with yeast nitrogen base (YNB) (Becton Dickinson, 233520) broth to a final concentration of 2.5 × 10^3 CFU/mL. The compounds were serially diluted 2-fold across the wells of 96-well plates (Corning 3641, non-binding surface), with compound concentrations ranging from 0.015 to 64 µg/mL and final volumes of 50 µL, plated in duplicate. Then, 50 µL of the fungi suspension that was previously prepared in YNB broth to the final concentration of 2.5 × 10^3 CFU/mL was added to each well of the compound-containing plates, giving a final compound concentration range of 0.008 to 32 µg/mL. Plates were covered and incubated at 35 °C for 36 h without shaking. C. albicans MICs were determined by measuring the absorbance at OD530. For C. neoformans, resazurin was added at 0.006% final concentration to each well and incubated for a further 3 h before MICs were determined by measuring […]
Colistin and vancomycin were used as positive bacterial inhibitor standards for Gram-negative and Gram-positive bacteria, respectively. Fluconazole was used as a positive fungal inhibitor standard for C. albicans and C. neoformans. The antibiotics were provided in […], with 3 above and 3 below its MIC value, and plated into the first 8 wells of column 23 of the 384-well NBS plates. The quality control (QC) of the assays was determined by the antimicrobial controls and the Z'-factor (using positive and negative controls). Each plate was deemed to fulfil the quality criteria (pass QC) if the Z'- […]
inhibition at their highest concentration, and no growth inhibition at their lowest concentration.
2.4. Determination of the MICs of Antibiotics in the Presence of Synergizing Compounds

The structures appear in SMILES notation.

Turning to `C=C[C@]1(C)C[C@@H](OC(=O)CSCCN(CC)CC)[C@]2(C)[C@H](C)CC[C@]3(CCC(=O)[C@H]32)[C@@H](C)[C@@H]1O` [Compound 2, Tiamulin, reference compound], the “Hemolysis (HC10), concentration of compound at 10% hemolytic activity” value (“Hemolysis (HC10) … at 10% hemolytic activity” for short) with human red blood cells is >64.8 µM. Moreover, the minimal inhibitory concentration (MIC) in the data set with C. albicans ATCC 90028 was > 64.8 µM. Also, the “MIC C.a.” value with C. albicans ATCC 90028 (mean (n = 2)) was “no activity”.

On to `C=C[C@]1(C)C[C@@H](OC(=O)CNCCCNCCCCNCCCNCC(=O)O[C@@H]2C[C@@](C)(C=C)[C@@H](O)[C@H](C)[C@]34CCC(=O)[C@H]3[C@@]2(C)[C@H](C)CC4)[C@]2(C)[C@H](C)CC[C@]3(CCC(=O)[C@H]32)[C@@H](C)[C@@H]1O.O=C(O)C(F)(F)F.O=C(O)C(F)(F)F.O=C(O)C(F)(F)F.O=C(O)C(F)(F)F` [Compound 9a, N^1,N^1′-(Butane-1,4-diyl)bis(N^3-(2-(((3aR,4R,5R,7S,8S,9R,9aS,12R)-8-hydroxy-4,7,9,12-tetramethyl-3-oxo-7-vinyldecahydro-4,9a-propanocyclopenta [8]annulen-5-yl)oxy)-2-oxoethyl)propane-1,3-diaminium) 2,2,2-trifluoroacetate], for which, in the data set on human red blood cells, the “Hemolysis (HC10) … at 10% hemolytic activity” value was >23.2 µM. Further, in the data set with C. albicans ATCC 90028, the MIC is > 23.2 µM.

For `C=C[C@]1(C)C[C@@H](OC(=O)CNCCCNCCCCCCCNCCCNCC(=O)O[C@@H]2C[C@@](C)(C=C)[C@@H](O)[C@H](C)[C@]34CCC(=O)[C@H]3[C@@]2(C)[C@H](C)CC4)[C@]2(C)[C@H](C)CC[C@]3(CCC(=O)[C@H]32)[C@@H](C)[C@@H]1O.O=C(O)C(F)(F)F.O=C(O)C(F)(F)F.O=C(O)C(F)(F)F.O=C(O)C(F)(F)F` [Compound 9c, N^1,N^1′-(Heptane-1,7-diyl)bis(N^3-(2-(((3aR,4R,5R,7S,8S,9R,9aS,12R)-8-hydroxy-4,7,9,12-tetramethyl-3-oxo-7-vinyldecahydro-4,9a-propanocyclopenta [8]annulen-5-yl)oxy)-2-oxoethyl)propane-1,3-diaminium) 2,2,2-trifluoroacetate], in the data set with human red blood cells, the “Hemolysis (HC10) … at 10% hemolytic activity” value is >22.5 µM. Also, the MIC with C. albicans ATCC 90028 was > 22.5 µM.

As for `C=C[C@]1(C)C[C@@H](OC(=O)CNCCCNCCCCCCCCCCCCNCCCNCC(=O)O[C@@H]2C[C@@](C)(C=C)[C@@H](O)[C@H](C)[C@]34CCC(=O)[C@H]3[C@@]2(C)[C@H](C)CC4)[C@]2(C)[C@H](C)CC[C@]3(CCC(=O)[C@H]32)[C@@H](C)[C@@H]1O.O=C(O)C(F)(F)F.O=C(O)C(F)(F)F.O=C(O)C(F)(F)F.O=C(O)C(F)(F)F` [Compound 9f, N^1,N^1′-(Dodecane-1,12-diyl)bis(N^3-(2-(((3aR,4R,5R,7S,8S,9R,9aS,12R)-8-hydroxy-4,7,9,12-tetramethyl-3-oxo-7-vinyldecahydro-4,9a-propanocyclopenta [8]annulen-5-yl)oxy)-2-oxoethyl)propane-1,3-diaminium) 2,2,2-trifluoroacetate], in the data set with human red blood cells, the “Hemolysis (HC10) … at 10% hemolytic activity” value is 13.2 µM. In the data set on C. albicans ATCC 90028, the MIC turned out to be 21.5 µM.

Turning to `C=C[C@]1(C)C[C@@H](OC(=O)CNCCCNCCCCCCNCCCNCC(=O)O[C@@H]2C[C@@](C)(C=C)[C@@H](O)[C@H](C)[C@]34CCC(=O)[C@H]3[C@@]2(C)[C@H](C)CC4)[C@]2(C)[C@H](C)CC[C@]3(CCC(=O)[C@H]32)[C@@H](C)[C@@H]1O.O=C(O)C(F)(F)F.O=C(O)C(F)(F)F.O=C(O)C(F)(F)F.O=C(O)C(F)(F)F` [Compound 9b, N^1,N^1′-(Hexane-1,6-diyl)bis(N^3-(2-(((3aR,4R,5R,7S,8S,9R,9aS,12R)-8-hydroxy-4,7,9,12-tetramethyl-3-oxo-7-vinyldecahydro-4,9a-propanocyclopenta [8]annulen-5-yl)oxy)-2-oxoethyl)propane-1,3-diaminium) 2,2,2-trifluoroacetate], in the data set on human red blood cells, the “Hemolysis (HC10) … at 10% hemolytic activity” value is >22.7 µM. In addition, in the data set with C. albicans ATCC 90028, the MIC is > 22.7 µM.

`C=C[C@]1(C)C[C@@H](OC(=O)CNCCCNCCCCCCCCCCNCCCNCC(=O)O[C@@H]2C[C@@](C)(C=C)[C@@H](O)[C@H](C)[C@]34CCC(=O)[C@H]3[C@@]2(C)[C@H](C)CC4)[C@]2(C)[C@H](C)CC[C@]3(CCC(=O)[C@H]32)[C@@H](C)[C@@H]1O.O=C(O)C(F)(F)F.O=C(O)C(F)(F)F.O=C(O)C(F)(F)F.O=C(O)C(F)(F)F` [Compound 9e, N^1,N^1′-(Decane-1,10-diyl)bis(N^3-(2-(((3aR,4R,5R,7S,8S,9R,9aS,12R)-8-hydroxy-4,7,9,12-tetramethyl-3-oxo-7-vinyldecahydro-4,9a-propanocyclopenta [8]annulen-5-yl)oxy)-2-oxoethyl)propane-1,3-diaminium) 2,2,2-trifluoroacetate]: in the data set on human red blood cells, the “Hemolysis (HC10) … at 10% hemolytic activity” value was >21.9 µM. Moreover, the MIC in the data set with C. albicans ATCC 90028 is 10.9 µM.

Take `C=C[C@]1(C)C[C@@H](OC(=O)CNCCCNCCCCCCCCNCCCNCC(=O)O[C@@H]2C[C@@](C)(C=C)[C@@H](O)[C@H](C)[C@]34CCC(=O)[C@H]3[C@@]2(C)[C@H](C)CC4)[C@]2(C)[C@H](C)CC[C@]3(CCC(=O)[C@H]32)[C@@H](C)[C@@H]1O.O=C(O)C(F)(F)F.O=C(O)C(F)(F)F.O=C(O)C(F)(F)F.O=C(O)C(F)(F)F` [Compound 9d, N^1,N^1′-(Octane-1,8-diyl)bis(N^3-(2-(((3aR,4R,5R,7S,8S,9R,9aS,12R)-8-hydroxy-4,7,9,12-tetramethyl-3-oxo-7-vinyldecahydro-4,9a-propanocyclopenta [8]annulen-5-yl)oxy)-2-oxoethyl)propane-1,3-diaminium) 2,2,2-trifluoroacetate]: the “Hemolysis (HC10) … at 10% hemolytic activity” value with human red blood cells was >22.3 µM. Further, the MIC in the data set with C. albicans ATCC 90028 was > 22.3 µM.
